ChEMBL document CHEMBL1124195, “Substituted benzamides with conformationally restricted side chains. 2. Indolizidine derivatives as central dopamine receptor antagonists” (J Med Chem, 1988)
The source made the active and inactive calls. No cut-off for these calls is given here.

Experiments:
[1] = test system: Mus musculus; assay: Evaluated for the antagonism of apomorphine-induced climbing behavior in mice (sc); format: functional
[2] = molecular target: D(1A) dopamine receptor (Rattus norvegicus, UniProt P18901); assay: Binding affinity against Dopamine receptor D1 at 10e-3 M concentration using cis-[3H]flupenthixol in rat striatal tissue
[3] = molecular target: D(2) dopamine receptor (Rattus norvegicus, UniProt P61169); assay: Binding affinity against Dopamine receptor D2 at 10e-3 M concentration using [3H]spiperone in rat striatal tissue
[4] = test system: Rattus norvegicus; assay: Effective concentration for inhibition of amphetamine-induced locomotor activity in rats 4 hr after dosing administered intraperitoneally; format: functional; settings: ip
[5] = test system: Rattus norvegicus; assay: Compound was tested for inducing catalepsy 4 hr after dose administered intraperitoneally; format: functional; settings: ip
[6] = test system: Rattus norvegicus; assay: Evaluated for lowest active dose (LAD) for (gastric prokinetic activity) stimulation of intragastric pressure (IGP) in rats (sc); Inactive (0.5-10 mg/kg); format: functional, organism-based
[7] = test system: Rattus norvegicus; assay: Evaluated for lowest active dose (LAD) for (gastric prokinetic activity) stimulation of intragastric pressure (IGP) in rats (sc); format: functional

D(1A) dopamine receptor, sequence (P18901 whole entry): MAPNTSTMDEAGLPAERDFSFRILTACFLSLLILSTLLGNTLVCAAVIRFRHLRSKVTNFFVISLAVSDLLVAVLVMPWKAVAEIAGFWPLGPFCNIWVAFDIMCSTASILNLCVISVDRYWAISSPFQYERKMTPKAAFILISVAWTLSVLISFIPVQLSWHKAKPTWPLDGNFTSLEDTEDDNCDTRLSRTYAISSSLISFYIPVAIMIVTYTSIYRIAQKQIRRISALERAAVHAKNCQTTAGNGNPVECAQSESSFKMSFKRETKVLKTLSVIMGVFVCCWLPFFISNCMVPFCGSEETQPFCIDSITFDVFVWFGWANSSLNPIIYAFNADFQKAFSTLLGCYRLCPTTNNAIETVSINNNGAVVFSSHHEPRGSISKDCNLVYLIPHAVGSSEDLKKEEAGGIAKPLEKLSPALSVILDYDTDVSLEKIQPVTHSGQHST
D(2) dopamine receptor, sequence (P61169 whole entry): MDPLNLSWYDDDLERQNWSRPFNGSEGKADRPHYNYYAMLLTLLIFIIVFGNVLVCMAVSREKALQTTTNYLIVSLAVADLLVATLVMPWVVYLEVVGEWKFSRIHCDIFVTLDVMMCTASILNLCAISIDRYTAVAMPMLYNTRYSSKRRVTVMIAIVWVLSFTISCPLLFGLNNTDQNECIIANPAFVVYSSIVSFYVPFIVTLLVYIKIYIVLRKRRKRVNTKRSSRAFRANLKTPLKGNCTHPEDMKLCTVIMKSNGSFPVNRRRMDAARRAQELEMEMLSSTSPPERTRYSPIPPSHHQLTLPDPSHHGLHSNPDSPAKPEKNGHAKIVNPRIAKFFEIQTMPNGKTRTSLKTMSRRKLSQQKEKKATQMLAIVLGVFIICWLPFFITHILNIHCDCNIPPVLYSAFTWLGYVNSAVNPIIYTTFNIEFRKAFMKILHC

Row | Compound | ED50 [1] | LAD [6] | further results
1 | COc1cc(N)c(Cl)cc1C(=O)NC1CCN2CC(C)(c3ccccc3)CC2C1 (centres undefined) | 0.078 mg/kg | inactive | Ki [2]: > 10000 nM; Ki [3]: 250 nM; ED50 [4]: 0.02 mg/kg; ED50 [5]: 3.4 mg/kg
2 | COc1cc(N)c(Cl)cc1C(=O)NC1CCN2C[C@@H](c3ccccc3)CC2C1 (some centres undefined) | 0.024 mg/kg | inactive | –
3 | COc1cc(N)c(Cl)cc1C(=O)NC1CCN(Cc2ccccc2)CC1 [CLEBOPRIDE] | 0.037 mg/kg | – | LAD [7]: 1 mg/kg
4 | COc1cc(N)c(Cl)cc1C(=O)NC1CC(C)N2CC(c3ccccc3)CC2C1 (centres undefined) | 0.4 mg/kg | inactive | –
5 | COc1cc(N)c(Cl)cc1C(=O)NC1CCN2C[C@H](c3ccccc3)CCC2C1 (some centres undefined) | > 1 mg/kg | inactive | –
6 | COc1cc(N)c(Cl)cc1C(=O)NC1CCN2CC(c3ccc(F)cc3)CC2C1 (centres undefined) | 0.015 mg/kg | – | –
7 | COc1cc(N)c(Cl)cc1C(=O)NC1CCN2CC(c3ccccc3F)CC2C1 (centres undefined) | 0.03 mg/kg | – | –
8 | COc1cc(N)c(Cl)cc1C(=O)NC1CCN2C[C@H](c3ccccc3)CC2C1 (some centres undefined) | > 3 mg/kg | – | LAD [7]: 1 mg/kg
9 | COc1cc(N)c(Cl)cc1C(=O)NC1CCN2CC(c3ccccc3)(c3ccccc3)CC2C1 (centres undefined) | > 1 mg/kg | inactive | –
10 | COc1cc(N)c(Cl)cc1C(=O)NC1CCN2C[C@@H](c3ccccc3)CCC2C1 (some centres undefined) | > 1 mg/kg | inactive | –
11 | CCN(CC)CCNC(=O)c1cc(Cl)c(N)cc1OC [METOCLOPRAMIDE] | 0.75 mg/kg | – | LAD [7]: 1 mg/kg
